Structures can show the parent of a compound that is named as a salt. Where two headings read alike, the source gives them in different places.

Assay in all cases: AK assay 384-well format, Prestwick library screening
Assay [1] relates to S. aureus strain USA300-0114. It counts as cell-based, Staphylococcus aureus. The conditions noted are these: 50 μM final drug concentration; for fold induction at 50 µM: Staphylococcus aureus, USA300, 3 h.
The test system of assay [2] is A. baumannii strain 98-37-09. Format: cell-based, Acinetobacter baumannii. Conditions: 50 μM final drug concentration; for fold induction at 50 µM: Acinetobacter baumannii, 983709, 3 h.
The next assay concerns K. pneumoniae. Format: cell-based, Klebsiella pneumoniae. Conditions: 50 μM final drug concentration; for fold induction at 50 µM: Klebsiella pneumoniae, 3 h.
In a further assay the test system is E. faecium. Format: cell-based, Enterococcus faecium. The conditions noted are these: 50 μM final drug concentration; for fold induction at 50 µM: Enterococcus faecium, 3 h.
A further assay has as its system E. coli. It counts as cell-based, Escherichia coli. Conditions: 50 μM final drug concentration; for fold induction at 50 µM: Escherichia coli, 3 h.
The test system of another assay is E. cloacae. It counts as cell-based, Enterobacter cloacae. The conditions noted are these: 50 μM final drug concentration; for fold induction at 50 µM: Enterobacter cloacae, 3 h.
Another assay has as its system P. aeruginosa. Format: cell-based, Pseudomonas aeruginosa. Conditions: 50 μM final drug concentration; for fold induction at 50 µM: Pseudomonas aeruginosa, 3 h.
Setting [3] is: planktonic S. aureus, positive cutoff 3-fold increase, read-out: AK-based Prestwick library screening result, S. aureus (fold increase in extracellular AK activity).
The mark [4] stands for this setting: planktonic A. baumannii, positive cutoff 3-fold increase, read-out: AK-based Prestwick library screening result, A. baumannii (fold increase in extracellular AK activity).
The mark [5] stands for this setting: planktonic K. pneumoniae, positive cutoff 3-fold increase, read-out: AK-based Prestwick library screening result, K. pneumoniae (fold increase in extracellular AK activity).
Setting [6] is: planktonic E. faecium, positive cutoff 3-fold increase, read-out: AK-based Prestwick library screening result, E. faecium (fold increase in extracellular AK activity).
Where [7] appears, read: planktonic E. coli, positive cutoff 3-fold increase, read-out: AK-based Prestwick library screening result, E. coli (fold increase in extracellular AK activity).
Setting [8] is: planktonic E. cloacae, positive cutoff 3-fold increase, read-out: AK-based Prestwick library screening result, E. cloacae (fold increase in extracellular AK activity).
Setting [9] is: planktonic P. aeruginosa, positive cutoff 3-fold increase, read-out: AK-based Prestwick library screening result, P. aeruginosa (fold increase in extracellular AK activity).

Turning to `C[C@]12CC[C@@H]3c4ccc(O)cc4CC[C@H]3[C@@H]1C[C@@H](O)[C@@H]2O` [Estriol], the fold induction at 50 µM in assay [1] (setting [3]) was 1.2; in assay [2] (setting [4]), 1.2; with K. pneumoniae (setting [5]), 0.8; in the assay with E. faecium (setting [6]) it was 1.1; with E. coli (setting [7]) it was 1.1; with E. cloacae (setting [8]), 1.4. For the same molecule, the fold induction at 50 µM in the assay with P. aeruginosa (setting [9]) worked out at 1.

Take `CCN1CCC[C@H]1CNC(=O)c1c(OC)ccc(Br)c1OC` [Remoxipride Hydrochloride]: the fold induction at 50 µM in assay [1] (cutoff for positive-scoring molecules 3-fold increase, read-out: AK-based Prestwick Library Screening Results, S. aureus (fold increase in extracellular AK activity)) is 0.6; in assay [2] (cutoff for positive-scoring molecules 3-fold increase, read-out: AK-based Prestwick Library Screening Results, A. baumannii (fold increase in extracellular AK activity)), 0.7; in the assay with K. pneumoniae (cutoff for positive-scoring molecules 3-fold increase, read-out: AK-based Prestwick Library Screening Results, K. pneumoniae (fold increase in extracellular AK activity)) it was 0.6; in the assay on E. faecium (cutoff for positive-scoring molecules 3-fold increase, read-out: AK-based Prestwick Library Screening Results, E. faecium (fold increase in extracellular AK activity)), 0.9; with E. coli (cutoff for positive-scoring molecules 3-fold increase, read-out: AK-based Prestwick Library Screening Results, E. coli (fold increase in extracellular AK activity)), 0.7; in the assay on E. cloacae (cutoff for positive-scoring molecules 3-fold increase, read-out: AK-based Prestwick Library Screening Results, E. cloacae (fold increase in extracellular AK activity)), 0.8. The fold induction at 50 µM in the assay with P. aeruginosa (cutoff for positive-scoring molecules 3-fold increase, read-out: AK-based Prestwick Library Screening Results, P. aeruginosa (fold increase in extracellular AK activity)) was 0.7.

As for `C[N+]1(C)CCC(=C(c2ccccc2)c2ccccc2)CC1` [Diphemanil methylsulfate], the fold induction at 50 µM in assay [1] (planktonic S. aureus, 384-well, […], read-out: AK-based Prestwick Library Screening Results: S. aureus (increase in extracellular AK activity)) was found to be 1.5; in assay [2] (planktonic A. baumannii, 384-well, […], read-out: AK-based Prestwick Library Screening Results: A. baumannii (increase in extracellular AK activity)) it was 1.3; in the assay on K. pneumoniae (planktonic K. pneumoniae, 384-well, […], read-out: AK-based Prestwick Library Screening Results: K. pneumoniae (increase in extracellular AK activity)), 1.1; with E. faecium (planktonic E. faecium, 384-well, […], read-out: AK-based Prestwick Library Screening Results: E. faecium (increase in extracellular AK activity)) it was 1.1; in the assay on E. coli (planktonic E. coli, 384-well, […], read-out: AK-based Prestwick Library Screening Results: E. coli (increase in extracellular AK activity)) it was 1.2; in the assay on E. cloacae (planktonic E. cloacae, 384-well, […], read-out: AK-based Prestwick Library Screening Results: E. cloacae (increase in extracellular AK activity)), 1.6. Further, in the assay with P. aeruginosa (planktonic P. aeruginosa, 384-well, […], read-out: AK-based Prestwick Library Screening Results: P. aeruginosa (increase in extracellular AK activity)), the fold induction at 50 µM came out at 1.

In the case of `NNC(=O)c1ccncc1` [Isoniazid], the fold induction at 50 µM in assay [1] (384-well format, cutoff for positive-scoring molecules 3-fold increase, read-out: AK-based Prestwick Library Screening Results, S. aureus (increase in extracellular AK activity)) was determined as 0.7; in assay [2] (384-well format, cutoff for positive-scoring molecules 3-fold increase, read-out: AK-based Prestwick Library Screening Results, A. baumannii (increase in extracellular AK activity)), 0.6; in the assay on K. pneumoniae (384-well format, cutoff for positive-scoring molecules 3-fold increase, read-out: AK-based Prestwick Library Screening Results, K. pneumoniae (increase in extracellular AK activity)), 0.6; with E. faecium (384-well format, cutoff for positive-scoring molecules 3-fold increase, read-out: AK-based Prestwick Library Screening Results, E. faecium (increase in extracellular AK activity)), 1; with E. coli (384-well format, cutoff for positive-scoring molecules 3-fold increase, read-out: AK-based Prestwick Library Screening Results, E. coli (increase in extracellular AK activity)), 0.6; with E. cloacae (384-well format, cutoff for positive-scoring molecules 3-fold increase, read-out: AK-based Prestwick Library Screening Results, E. cloacae (increase in extracellular AK activity)), 0.6. Moreover, the fold induction at 50 µM in the assay with P. aeruginosa (384-well format, cutoff for positive-scoring molecules 3-fold increase, read-out: AK-based Prestwick Library Screening Results, P. aeruginosa (increase in extracellular AK activity)) was 0.6.

Take `CN(C/C=C/c1ccccc1)Cc1cccc2ccccc12` [Naftifine hydrochloride]: the fold induction at 50 µM turned out to be 0.8 in assay [1] (setting [3]); 1.1 in assay [2] (setting [4]); 0.7 in the assay on K. pneumoniae (setting [5]); 1 with E. faecium (setting [6]); 1 in the assay on E. coli (setting [7]); 1 in the assay with E. cloacae (setting [8]). Moreover, the fold induction at 50 µM in the assay on P. aeruginosa (setting [9]) turned out to be 0.8.

`CN1CCN(C(c2ccccc2)c2ccccc2)CC1` [Cyclizine hydrochloride]: the fold induction at 50 µM was 0.9 in assay [1] (planktonic S. aureus, cutoff for positive-scoring molecules 3-fold increase, read-out: AK-based Prestwick Library Screening Results, S. aureus (increase in extracellular AK activity)); 1 in assay [2] (planktonic A. baumannii, cutoff for positive-scoring molecules 3-fold increase, read-out: AK-based Prestwick Library Screening Results, A. baumannii (increase in extracellular AK activity)); 0.8 with K. pneumoniae (planktonic K. pneumoniae, cutoff for positive-scoring molecules 3-fold increase, read-out: AK-based Prestwick Library Screening Results, K. pneumoniae (increase in extracellular AK activity)); 1 in the assay with E. faecium (planktonic E. faecium, cutoff for positive-scoring molecules 3-fold increase, read-out: AK-based Prestwick Library Screening Results, E. faecium (increase in extracellular AK activity)); 0.9 in the assay with E. coli (planktonic E. coli, cutoff for positive-scoring molecules 3-fold increase, read-out: AK-based Prestwick Library Screening Results, E. coli (increase in extracellular AK activity)); 0.9 with E. cloacae (planktonic E. cloacae, cutoff for positive-scoring molecules 3-fold increase, read-out: AK-based Prestwick Library Screening Results, E. cloacae (increase in extracellular AK activity)). In addition, the fold induction at 50 µM in the assay with P. aeruginosa (planktonic P. aeruginosa, cutoff for positive-scoring molecules 3-fold increase, read-out: AK-based Prestwick Library Screening Results, P. aeruginosa (increase in extracellular AK activity)) worked out at 0.9.

With `CC(=O)/N=c1/sc(S(N)(=O)=O)nn1C` [Methazolamide], the fold induction at 50 µM in assay [1] (planktonic, cutoff for positive-scoring molecules 3-fold increase, read-out: AK-based Prestwick Library Screening Results, S. aureus (fold increase in extracellular AK activity)) stood at 0.6; in assay [2] (planktonic, cutoff for positive-scoring molecules 3-fold increase, read-out: AK-based Prestwick Library Screening Results, A. baumannii (fold increase in extracellular AK activity)), 0.5; with K. pneumoniae (planktonic, cutoff for positive-scoring molecules 3-fold increase, read-out: AK-based Prestwick Library Screening Results, K. pneumoniae (fold increase in extracellular AK activity)) it was 0.5; with E. faecium (planktonic, cutoff for positive-scoring molecules 3-fold increase, read-out: AK-based Prestwick Library Screening Results, E. faecium (fold increase in extracellular AK activity)), 1.5; in the assay on E. coli (planktonic, cutoff for positive-scoring molecules 3-fold increase, read-out: AK-based Prestwick Library Screening Results, E. coli (fold increase in extracellular AK activity)), 0.5; in the assay with E. cloacae (planktonic, cutoff for positive-scoring molecules 3-fold increase, read-out: AK-based Prestwick Library Screening Results, E. cloacae (fold increase in extracellular AK activity)), 0.7. Further, the fold induction at 50 µM in the assay with P. aeruginosa (planktonic, cutoff for positive-scoring molecules 3-fold increase, read-out: AK-based Prestwick Library Screening Results, P. aeruginosa (fold increase in extracellular AK activity)) was 0.6.

With `COc1ccc(C(=O)OC2C[C@H]3CC[C@@H](C2)N3C)cc1OC.Cl` (some centres unmarked) [Convolamine hydrochloride], the “AK-based Prestwick Library Screening Results, S. aureus (increase in extracellular AK activity)” value in assay [1] (planktonic S. aureus, cutoff for positive-scoring molecules 3-fold increase) is 0.6. Also, the “AK-based Prestwick Library Screening Results, A. baumannii (increase in extracellular AK activity)” value in assay [2] (planktonic A. baumannii, cutoff for positive-scoring molecules 3-fold increase) stood at 1.0. Besides, in the assay on K. pneumoniae (planktonic K. pneumoniae, cutoff for positive-scoring molecules 3-fold increase), the “AK-based Prestwick Library Screening Results, K. pneumoniae (increase in extracellular AK activity)” value was 0.7. The “AK-based Prestwick Library Screening Results, E. faecium (increase in extracellular AK activity)” value in the assay with E. faecium (planktonic E. faecium, cutoff for positive-scoring molecules 3-fold increase) is 0.9. For the same molecule, the “AK-based Prestwick Library Screening Results, E. coli (increase in extracellular AK activity)” value with E. coli (planktonic E. coli, cutoff for positive-scoring molecules 3-fold increase) came out at 1.1. In addition, the “AK-based Prestwick Library Screening Results, E. cloacae (increase in extracellular AK activity)” value with E. cloacae (planktonic E. cloacae, cutoff for positive-scoring molecules 3-fold increase) stood at 1.3. For the same molecule, in the assay on P. aeruginosa (planktonic P. aeruginosa, cutoff for positive-scoring molecules 3-fold increase), the “AK-based Prestwick Library Screening Results, P. aeruginosa (increase in extracellular AK activity)” value is recorded as 0.8.
